According to patent US12146004B2, “Polymyxin compounds and uses thereof” (priority 2014, dated 2024):
≈ marks a conversion by molar mass, not a printed value. Where two headings read alike, the source gives them in different places. Numbered stars: 1 amine (or outer) side, 2 acyl side, 3 side chain; on linkers, the order of the positions; unused ones are H or OH. Bridge positions count the residues as written; N and C are the ends. Square brackets hold non-standard residues; d marks the D form. Peptide text beside a SMILES is read from it. * marks the point of attachment. ξ: configuration not given here. X12 = O=C([C@@H](Cc1ccc(C2CCCCC2)cc1)N[*:1])[*:2]; dBip = N[C@H](Cc1ccc(-c2ccccc2)cc1)C(=O)O; X13 = NCC[C@H](OCc1ccc(Cl)cc1)C(=O)*; Octanoyl(6-Me) = CCC(C)CCCCC(=O)*; X3 = CCCCCCCCN1CCNC[C@H]1C(=O)*; dCha = N[C@H](CC1CCCCC1)C(=O)O; Thr(3ξ) = CC(O)[C@H](N)C(=O)O; X1 = CC(C)CN1CCNC[C@H]1C(=O)*; X7 = NCC(CC(=O)*)c1ccccc1; X8 = NCC(C(=O)*)C1CCCCC1; Dab = NCC[C@H](N)C(=O)O; Dap = NC[C@H](N)C(=O)O; X2 = CC(C)CC(CN)C(=O)*

Columns and labels:
Format in all cases: cell-based
HK-2 cells = system: HK-2 cells
Source text: Values are reported relative to Polymyxin B.

Klebsiella pneumoniae = system: Klebsiella pneumoniae
How it was run: (§1)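 MIC (μg/mL) by susceptibility testing against up to nine strains per species, including strains with elevated Polymyxin MICs and resistant isolates.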

Pseudomonas aeruginosa = system: Pseudomonas aeruginosa
How it was run: as §1

Escherichia coli = system: Escherichia coli
How it was run: as §1

Acinetobacter baumannii = system: Acinetobacter baumannii
How it was run: as §1

Structure (SMILES)	HK-2 IC50 (HK-2 cells) [µg/mL]	MIC K. pneumoniae 063 (Klebsiella pneumoniae) [µg/mL]	MIC K. pneumoniae 064 (Klebsiella pneumoniae) [µg/mL]	MIC K. pneumoniae 066 (Klebsiella pneumoniae) [µg/mL]	MIC K. pneumoniae 067 (Klebsiella pneumoniae) [µg/mL]	MIC K. pneumoniae ATCC 4352 (Klebsiella pneumoniae) [µg/mL]	MIC P. aeruginosa 068 (Pseudomonas aeruginosa) [µg/mL]	MIC P. aeruginosa 070 (Pseudomonas aeruginosa) [µg/mL]	MIC P. aeruginosa ATCC 27853 (Pseudomonas aeruginosa) [µg/mL]	MIC E. coli 058 (Escherichia coli) [µg/mL]	MIC E. coli 059 (Escherichia coli) [µg/mL]	MIC E. coli 060 (Escherichia coli) [µg/mL]	MIC E. coli 061 (Escherichia coli) [µg/mL]	MIC E. coli ATCC 25922 (Escherichia coli) [µg/mL]	MIC A. baumanii 053 (Acinetobacter baumannii) [µg/mL]	MIC A. baumanii 056 (Acinetobacter baumannii) [µg/mL]	MIC A. baumanii ATCC BAA-747 (Acinetobacter baumannii) [µg/mL]	MIC K. pneumoniae 065 (Klebsiella pneumoniae) [µg/mL]	MIC P. aeruginosa CCUG 59347 (Pseudomonas aeruginosa) [µg/mL]	MIC A. baumanii NCTC 13424 (Acinetobacter baumannii) [µg/mL]	further results
CC(C)CC(CN)C(=O)N[C@H](C(=O)N[C@@H](CCN)C(=O)N[C@H]1CCNC(=O)[C@H]([C@@H](C)O)NC(=O)[C@H](CCN)NC(=O)[C@H](CCN)NC(=O)[C@H](CC(C)C)NC(=O)[C@@H](CC2CCCCC2)NC(=O)[C@H](CCN)NC1=O)C(C)O (stereo partly shown) [Example 21] (X2-[Thr(3ξ)][Dab][Dab][Dab][dCha]L[Dab][Dab]T; lactam 3-C)	83	64 (≈ 58.4 µM)	8 (≈ 7.3 µM)	16 (≈ 14.6 µM)	>64	0.25 (≈ 0.228 µM)	32 (≈ 29.2 µM)	32 (≈ 29.2 µM)	0.5 (≈ 0.456 µM)	8 (≈ 7.3 µM)	16 (≈ 14.6 µM)	8 (≈ 7.3 µM)	32 (≈ 29.2 µM)	0.25 (≈ 0.228 µM)	>64	64 (≈ 58.4 µM)	0.5 (≈ 0.456 µM)				MIC K. pneumoniae 062 (Klebsiella pneumoniae): 16 µg/mL (≈ 14.6 µM)
CCC(C)CCCCC(=O)N[C@@H](CCN)C(=O)N[C@H](C(=O)N[C@@H](CCN)C(=O)N[C@H]1CCNC(=O)[C@H](C(C)O)NC(=O)[C@H](CCN)NC(=O)[C@H](CCN)NC(=O)[C@H](CC(C)C)NC(=O)[C@@H](CC2CCCCC2)NC(=O)[C@H](CCN)NC1=O)C(C)O (stereo partly shown) [Example 22] ({Octanoyl(6-Me)}-[Dab][Thr(3ξ)][Dab][Dab][Dab][dCha]L[Dab][Dab][Thr(3ξ)]; lactam 4-C)	17	32 (≈ 26.5 µM)	4 (≈ 3.31 µM)	4 (≈ 3.31 µM)	64 (≈ 52.9 µM)	0.5 (≈ 0.413 µM)	4 (≈ 3.31 µM)	4 (≈ 3.31 µM)	1 (≈ 0.827 µM)	2 (≈ 1.65 µM)	2 (≈ 1.65 µM)	4 (≈ 3.31 µM)	8 (≈ 6.61 µM)	0.5 (≈ 0.413 µM)	64 (≈ 52.9 µM)	32 (≈ 26.5 µM)	0.5 (≈ 0.413 µM)	1 (≈ 0.827 µM)			MIC K. pneumoniae 062 (Klebsiella pneumoniae): 16 µg/mL (≈ 13.2 µM)
CC(C)CC(CN)C(=O)N[C@H](C(=O)N[C@@H](CN)C(=O)N[C@H]1CCNC(=O)[C@H]([C@@H](C)O)NC(=O)[C@H](CCN)NC(=O)[C@H](CCN)NC(=O)[C@H](CC(C)C)NC(=O)[C@@H](Cc2ccc(C3CCCCC3)cc2)NC(=O)[C@H](CCN)NC1=O)C(C)O (stereo partly drawn) [Example 27, 2-(Aminomethyl)-4-methylpentanoyl L-Thr-L-Dap-polymyxin [D-(4-cyclohexyl Phe)]-6 heptapeptide] (X2-[Thr(3ξ)][Dap][Dab][Dab][X12]L[Dab][Dab]T; lactam 3-C)	18	8 (≈ 6.91 µM)				0.25 (≈ 0.216 µM)	4 (≈ 3.45 µM)	2 (≈ 1.73 µM)	0.5 (≈ 0.432 µM)	2 (≈ 1.73 µM)			8 (≈ 6.91 µM)	0.5 (≈ 0.432 µM)	8 (≈ 6.91 µM)	4 (≈ 3.45 µM)	0.5 (≈ 0.432 µM)	0.5 (≈ 0.432 µM)	1 (≈ 0.863 µM)	0.25 (≈ 0.216 µM)	MIC E. coli NCTC 9001 (Escherichia coli): 0.5 µg/mL (≈ 0.432 µM)
CC(C)C[C@@H]1NC(=O)[C@@H](CC2CCCCC2)NC(=O)[C@H](CCN)NC(=O)[C@@H](NC(=O)[C@H](CN)NC(=O)[C@@H](NC(=O)C(CN)C2CCCCC2)C(C)O)CCNC(=O)[C@H]([C@@H](C)O)NC(=O)[C@H](CCN)NC(=O)[C@H](CCN)NC1=O (stereo partly drawn) [Example 28, 3-Amino-2-cyclohexylpropanoyl L-Thr-L-Dap-polymyxin [D-cyclohexylalanine]-6 heptapeptide] (X8-[Thr(3ξ)][Dap][Dab][Dab][dCha]L[Dab][Dab]T; lactam 3-C)	86	8 (≈ 7.22 µM)				0.125 (≈ 0.113 µM)	4 (≈ 3.61 µM)	4 (≈ 3.61 µM)	0.25 (≈ 0.226 µM)	1 (≈ 0.902 µM)			8 (≈ 7.22 µM)	0.25 (≈ 0.226 µM)	16 (≈ 14.4 µM)	4 (≈ 3.61 µM)	0.06 (≈ 0.0541 µM)	1 (≈ 0.902 µM)	0.5 (≈ 0.451 µM)	0.125 (≈ 0.113 µM)	MIC E. coli NCTC 9001 (Escherichia coli): 0.125 µg/mL (≈ 0.113 µM)
CCCCCCCCN1CCNC[C@H]1C(=O)N[C@H](C(=O)N[C@@H](CN)C(=O)N[C@H]1CCNC(=O)[C@H]([C@@H](C)O)NC(=O)[C@H](CCN)NC(=O)[C@H](CCN)NC(=O)[C@H](CC(C)C)NC(=O)[C@@H](Cc2ccc(-c3ccccc3)cc2)NC(=O)[C@H](CCN)NC1=O)C(C)O (stereo partly drawn) [Example 30, (S)-1-Octylpiperazine-2-carbonyl L-Thr-L-Dap-polymyxin [D-(4-phenyl Phe)]-6 heptapeptide.] (X3-[Thr(3ξ)][Dap][Dab][Dab][dBip]L[Dab][Dab]T; lactam 3-C)	4	4 (≈ 3.2 µM)				1 (≈ 0.8 µM)	2 (≈ 1.6 µM)	2 (≈ 1.6 µM)	1 (≈ 0.8 µM)	1 (≈ 0.8 µM)			2 (≈ 1.6 µM)	1 (≈ 0.8 µM)	4 (≈ 3.2 µM)	2 (≈ 1.6 µM)	1 (≈ 0.8 µM)	1 (≈ 0.8 µM)	2 (≈ 1.6 µM)	2 (≈ 1.6 µM)	MIC K. pneumoniae ATCC 13882 (Klebsiella pneumoniae): 1 µg/mL (≈ 0.8 µM)
CC(C)C[C@@H]1NC(=O)[C@@H](CC2CCCCC2)NC(=O)[C@H](CCN)NC(=O)[C@@H](NC(=O)[C@H](CN)NC(=O)[C@@H](NC(=O)CC(CN)c2ccccc2)C(C)O)CCNC(=O)[C@H]([C@@H](C)O)NC(=O)[C@H](CCN)NC(=O)[C@H](CCN)NC1=O (stereo partly drawn) [Example 39, 4-amino-3-phenylbutanoyl L-Thr-L-Dap-polymyxin [D-cyclohexylalanine]-6 heptapeptide.] (X7-[Thr(3ξ)][Dap][Dab][Dab][dCha]L[Dab][Dab]T; lactam 3-C)																					HK-2 IC50 (HK-2 cells; HK-2 cells): 337 µg/mL; MIC K. pneumoniae 063 (Klebsiella pneumoniae; strain 063): 64 µg/mL (≈ 57.3 µM); MIC K. pneumoniae 065 (Klebsiella pneumoniae; strain 065): 4 µg/mL (≈ 3.58 µM); MIC K. pneumoniae ATCC 13882 (Klebsiella pneumoniae; strain ATCC 13882): 0.125 µg/mL (≈ 0.112 µM); MIC P. aeruginosa 068 (Pseudomonas aeruginosa; strain 068): 4 µg/mL (≈ 3.58 µM); MIC P. aeruginosa 070 (Pseudomonas aeruginosa; strain 070): 4 µg/mL (≈ 3.58 µM); MIC P. aeruginosa ATCC 27853 (Pseudomonas aeruginosa; strain ATCC 27853): 0.5 µg/mL (≈ 0.448 µM); MIC P. aeruginosa CCUG 59347 (Pseudomonas aeruginosa; strain CCUG 59347): 0.5 µg/mL (≈ 0.448 µM); MIC E. coli 058 (Escherichia coli; strain 058): 4 µg/mL (≈ 3.58 µM); MIC E. coli 061 (Escherichia coli; strain 061): 32 µg/mL (≈ 28.7 µM); MIC E. coli ATCC 25922 (Escherichia coli; strain ATCC 25922): 0.125 µg/mL (≈ 0.112 µM); MIC E. coli NCTC 9001 (Escherichia coli; strain NCTC 9001): 0.06 µg/mL (≈ 0.0537 µM); MIC A. baumanii 053 (Acinetobacter baumannii; strain 053): 32 µg/mL (≈ 28.7 µM); MIC A. baumanii 056 (Acinetobacter baumannii; strain 056): 64 µg/mL (≈ 57.3 µM); MIC A. baumanii ATCC BAA-747 (Acinetobacter baumannii; strain ATCC BAA-747): 0.06 µg/mL (≈ 0.0537 µM); MIC A. baumanii NCTC 13424 (Acinetobacter baumannii; strain NCTC 13424): 0.03 µg/mL (≈ 0.0269 µM)
CC(C)C[C@@H]1NC(=O)[C@@H](CC2CCCCC2)NC(=O)[C@H](CCN)NC(=O)[C@@H](NC(=O)[C@H](CN)NC(=O)[C@@H](NC(=O)[C@H](CCN)OCc2ccc(Cl)cc2)[C@@H](C)O)CCNC(=O)[C@H]([C@@H](C)O)NC(=O)[C@H](CCN)NC(=O)[C@H](CCN)NC1=O [Example 74, (S)-4-amino-2-((4-chlorobenzyl)oxy) butanoyl L-Thr-L-Dap-polymyxin [D-cyclohexylalanine]-6 heptapeptide.] (X13-T[Dap][Dab][Dab][dCha]L[Dab][Dab]T; lactam 3-C)	52	16 (≈ 13.5 µM)					4 (≈ 3.39 µM)	4 (≈ 3.39 µM)	0.25 (≈ 0.212 µM)	2 (≈ 1.69 µM)			16 (≈ 13.5 µM)	0.125 (≈ 0.106 µM)	32 (≈ 27.1 µM)	32 (≈ 27.1 µM)	0.125 (≈ 0.106 µM)	2 (≈ 1.69 µM)	0.25 (≈ 0.212 µM)	0.125 (≈ 0.106 µM)	MIC K. pneumoniae ATCC 13882 (Klebsiella pneumoniae): 0.25 µg/mL (≈ 0.212 µM)
CC(C)C[C@@H]1NC(=O)[C@@H](Cc2ccccc2)NC(=O)[C@H](CCN)NC(=O)[C@@H](NC(=O)[C@H](CN)NC(=O)[C@@H](NC(=O)[C@@H]2CNCCN2CC(C)C)C(C)O)CCNC(=O)[C@H]([C@@H](C)O)NC(=O)[C@H](CCN)NC(=O)[C@H](CCN)NC1=O (stereo partly drawn) [Example C2, (S)-1-isobutyl piperazine-2-carbonyl-L-Thr-L-Dap-polymyxin B heptapeptide, reference compound] (X1-[Thr(3ξ)][Dap][Dab][Dab][dF]L[Dab][Dab]T; lactam 3-C)	316	128 (≈ 115 µM)	32 (≈ 28.6 µM)	32 (≈ 28.6 µM)	>256	0.125 (≈ 0.112 µM)	32 (≈ 28.6 µM)		0.5 (≈ 0.447 µM)	8 (≈ 7.16 µM)	16 (≈ 14.3 µM)	8 (≈ 7.16 µM)	32 (≈ 28.6 µM)	0.25 (≈ 0.224 µM)	>256	256 (≈ 229 µM)	0.25 (≈ 0.224 µM)	16 (≈ 14.3 µM)			
